The values that follow come from patent US12219938B2, “Mouse model of alcohol-induced liver cancer” (UNIVERSITY OF FLORIDA RESEARCH FOUNDATION, INCORPORATED, priority 2020, dated 2025).

“Also recorded” adds a separate entry of the source.

Assay [1] deals with senescent cells. Kind of assay: Senolytic activity in livers of aging and STZ/HFD-treated mice. It counts as in vivo. The settings on record: data not shown.
A further assay concerns the target T1, Bcl-xL (Mus musculus, UniProt Q64373).
T1 construct: from tissue; host or cells: liver of STZ/EtOH-treated diabetic mice
The experiment in a line: Western blotting of Bcl-xL in STZ/EtOH-treated diabetic livers. It counts as in vivo, mice. The settings on record: 5 mg/kg i.p. every other day, five-month administration, 6-month feeding of 5% ethanol, vs vehicle controls. The source says:
PROTACs are bivalent small molecules containing a ligand that recognizes a target protein linked to another ligand that recruits a specific E3 ubiquitin ligase.^46,47 PROTAC binding induces proximity-induced ubiquitination of the target protein and its subsequent degradation by proteasomes. PROTACs act catalytically to induce protein degradation in a sub-stoichiometric manner. They result in less drug exposure and reduced toxicity compared with traditional inhibitors since their effect is not limited by equilibrium occupancy. […] PROTAC technology was used to develop a Bcl-xL specific PROTAC (Bcl-xL-P), which targets Bcl-xL to the E3 ligase cereblon (CRBN) or VHL. ES ligases cereblon and VHL are poorly expressed in platelets.^51-53Bcl-xL and Bcl-2 dual PROTACs/degraders that link to the VHL ligand and target Bcl-xL and Bcl-2 to VHL for ubiquitination and proteasome degradation were also developed. These Bcl-xL and Bcl-2 dual PROTACs/degraders are not only potent antitumor agents but also effective senolytic agents. PROTAC 753B targets Bcl-xL and Bcl-2 for proteasome degradation by linking to E3 ligase VHL. […] We examined the effect of 753B on EtOH-induced hepatocarcinogenesis. […] Magnetic resonance imaging (MRI) can allow precise and accurate quantification of tumour volume. […]
(In general: In western blotting, separated proteins are transferred to a membrane and probed.)

Assay [2] relates to senescent cells. The experiment in a line: X-gal staining for SA-β-galactosidase activity in STZ/EtOH-treated livers. It counts as in vivo, mice. The settings on record: 753B/EtOH-treated diabetic livers vs vehicle-treated controls.
Assay [3] relates to SASP genes, liver cancer markers (Gpc3 and Afp), oncogenes (Myc, Tgfa). Kind of assay: Western blotting and Q-RT-PCR of senescence, liver cancer marker and oncogene expression in STZ/EtOH-treated livers. It counts as in vivo, mice. The source says:
(§1) PROTACs are bivalent small molecules containing a ligand that recognizes a target protein linked to another ligand that recruits a specific E3 ubiquitin ligase.^46,47 PROTAC binding induces proximity-induced ubiquitination of the target protein and its subsequent degradation by proteasomes. PROTACs act catalytically to induce protein degradation in a sub-stoichiometric manner. They result in less drug exposure and reduced toxicity compared with traditional inhibitors since their effect is not limited by equilibrium occupancy. […] PROTAC technology was used to develop a Bcl-xL specific PROTAC (Bcl-xL-P), which targets Bcl-xL to the E3 ligase cereblon (CRBN) or VHL. ES ligases cereblon and VHL are poorly expressed in platelets.^51-53Bcl-xL and Bcl-2 dual PROTACs/degraders that link to the VHL ligand and target Bcl-xL and Bcl-2 to VHL for ubiquitination and proteasome degradation were also developed. These Bcl-xL and Bcl-2 dual PROTACs/degraders are not only potent antitumor agents but also effective senolytic agents. PROTAC 753B targets Bcl-xL and Bcl-2 for proteasome degradation by linking to E3 ligase VHL. […] We examined the effect of 753B on EtOH-induced hepatocarcinogenesis. 753B was administered through intraperitoneal injection at 5 mg/kg body weight every other day starting at one week after alcohol consumption. In parallel experiments, vehicle-treated control animals received a compound that could not interact with the VHL E3 ligase. […] Magnetic resonance imaging (MRI) can allow precise and accurate quantification of tumour volume. Therefore, we performed abdominal Mill examinations before or after Gd-chelate-enhanced MRI. HCC lesions were identified based on hypointense signals in T1 and hyperintense signals in T2-weighted scan at 6 months after EtOH feeding in the diabetic murine livers. In contract few lesions were found in EtOH fed animals treated with 753B (FIG. 16D). These Mill signals matched morphological evaluations of liver cancers in the sacrificed animals (FIG. 16E). […] Ratio of liver to body weight is an indicator of hepatocyte proliferation during liver regeneration and liver cancer development.

For another assay, the system named is EtOH-HCC. Kind of assay: EtOH-induced hepatocarcinogenesis in STZ-treated diabetic mice (MRI and morphological evaluation of tumors). It counts as in vivo.
Excerpt: Fujii et al. developed NASH-derived HCC model (STAM model) using STZ and HFD32.^15 This model replicates clinicopathological processes from fatty liver, NASH, fibrosis to HCC under diabetic background. The very high fat diet (HFD: 60% kcal fat) in combination with STZ also could induced morphologically detectable protrusion of liver tumor nodules at postnatal week 16. We have established a novel model in which ASH-associated liver cancer occurs in STZ-treated mice within 6 months after start of alcohol consumption (FIG. 2, 12). Mice were administered STZ on day two after birth. The STZ was administered in a dose sufficient to kill insulin-producing cells, and lead to diabetic mice. The streptozotocin-treated mice were then fed a Lieber-Decarli alcohol-liquid diet (EtOH) for four months starting at 8 weeks of age. Streptozotocin (200 μg/pup) was given through subcutaneous injection into mice at postnatal day 2. This dose was used to induce pre-diabetic condition in treated mice. This alcohol-liquid diet is from Bio-Sery (F1258) and EtOH is added into the liquid diets daily.
as §1

For another assay, the system named is liver fibrosis. Kind of assay: Myofibroblast activation and liver fibrosis during EtOH-associated hepatocarcinogenesis in diabetic mice. The class given is in vivo. The text has this:
Fibrosis is characterized by myofibroblast cell activation and excessive collagen deposition. Extensive fibrotic reaction has been reported during NASH to HCC transition through the chemical and dietary intervention by STZ/HFD cotreatment.^4 We compared effects of 753B and control compound on liver fibrosis in the diabetic animals after 5-month drug administration. […] Decreased liver fibrosis was further verified after quantitative measurement of collagen content based on hydroxyproline assay in livers exposed to 753B administration (1031.8±116.4 versus 721.2±215.0) (FIG. 17D). Ishak score of the liver tissue in the livers were also analyzed. Grade 0 has no fibrosis. Grade 1 has fibrous expansion of some portal areas, with or without short fibrous septa. Grade 2 contains fibrous expansion of most portal areas, with or without short fibrous septa. Grade 3 has fibrous expansion of most portal areas with an occasional portal to portal bridging. Grade 4 contains fibrous expansion of portal areas with marked bridging including portal-portal and portal-central bridging. Grade 5 has marked portal-portal and portal-central bridging with occasional nodules (incomplete cirrhosis). Grade 6 has cirrhosis, probable or define.

The mark [4] stands for this setting: Q-RT-PCR, 753B/EtOH-treated diabetic livers vs vehicle-treated controls.
Where [5] appears, read: STZ/EtOH-treated livers, 5 mice per group.
Setting [6] is: 5-month drug administration, vs controls.

T1 sequence (Q64373 whole entry): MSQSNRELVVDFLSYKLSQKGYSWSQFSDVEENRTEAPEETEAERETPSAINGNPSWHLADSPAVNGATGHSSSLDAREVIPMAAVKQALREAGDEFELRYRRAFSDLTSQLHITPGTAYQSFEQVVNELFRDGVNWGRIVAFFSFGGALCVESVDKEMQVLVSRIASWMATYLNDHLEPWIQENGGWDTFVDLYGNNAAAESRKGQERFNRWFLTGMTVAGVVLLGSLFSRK

On to `Cc1ncsc1-c1ccc([C@H](C)NC(=O)[C@@H]2C[C@@H](O)CN2C(=O)[C@@H](NC(=O)CCCCCCC(=O)N2CCN(C[C@]3(C)CCC(c4ccc(Cl)cc4)=C(CN4CCN(c5ccc(C(=O)NS(=O)(=O)c6ccc(N[C@H](CCN7CCOCC7)CSc7ccccc7)c(S(=O)(=O)C(F)(F)F)c6)cc5)CC4)C3)CC2)C(C)(C)C)cc1` [753B], for which the “senolytic activity in livers” value in the assay on senescent cells [1] was “high senolytic activity”. Also, the “Bcl-xL accumulation (Western blotting)” value on Bcl-xL is on record as “effectively inhibited Bcl-xL accumulation”. In addition, the “senescence by SA-β-gal activity (X-gal staining)” value with senescent cells [2] is reported as “little senescence; also recorded: inhibited senescent cell accumulation”. In addition, the “Gpc3 protein expression (Western blotting)” value in assay [3] (5 mg/kg i.p. every other day, five-month administration, diabetic livers, 6-month feeding of 5% ethanol) is listed as “reduced Gpc3 expression; also recorded: blocked induction”. In assay [3] (setting [4]), the “mRNA levels of SASP genes (Cdkn2a/p16, Cdkn2b/p15, Ccl2, Ccl11, Serpine1/PAI1, Ccl12)” value was “significant reduction; also recorded: inhibited mRNA levels”; the “mRNA levels of liver cancer markers (Gpc3 and Afp)” value was “significant reduction; also recorded: inhibited mRNA levels”; the “mRNA levels of oncogenes (Myc and Tgfa)” value is recorded as “significant reduction”. In the assay on EtOH-HCC (setting [5]), the “formation of tumor nodules, number” value is “efficiently inhibited” and the “formation of tumor nodules, volume” value is “efficiently inhibited”. Also, the “ratio of liver to body weight” value in the assay on EtOH-HCC (STZ/EtOH-treated mice, 5 mice per group) was “significantly decreased”. Further, in the assay on EtOH-HCC (T1/T2-weighted scan at 6 months after EtOH feeding), the “HCC lesions in MRI” value was “few lesions”. Further, the “tumor size (diameter) of the majority of tumors” value in the assay with EtOH-HCC (morphological evaluation, STZ/EtOH-treated livers) was “small in size (<2 mM and 2-5 mm)”. In the assay on liver fibrosis (setting [6]), the “collagen deposition (Sirius red staining and Western analysis)” value is recorded as “significantly lower; also recorded: little collagen deposition”; the “myofibroblast activation (aSMA immunofluorescent staining and Western blotting)” value is given as “significantly reduced; also recorded: few myofibroblast activation”. Moreover, in the assay with liver fibrosis (Q-RT-PCR, diabetic animals after 5-month drug administration, vs control compound), the “mRNA of fibrosis-related markers (aSMA, Col1a1, Col1a2, Col4a1, Col4a2, Tgf-b2, Ctgf, Pdgf-b, Spp1)” value is given as “significant downregulation; also recorded: lower levels”. Further, the “aSMA and pro-collagen type I proteins (Western blotting)” value in the assay with liver fibrosis (STZ/EtOH/753B-treated livers) was “low levels”. In addition, the “Ishak score of liver fibrosis” value in the assay with liver fibrosis (vs controls, 5-6 livers per group) is “significantly decreased; also recorded: lower levels”.
